In patent publication US20240190880A1 (THE REGENTS OF THE UNIVERSITY OF MICHIGAN, priority 2021, published 2024) one finds DC50 data, which are given here for 16 molecules.

The structures appear in SMILES notation.

The first assay has as its target T1, ER (Homo sapiens, UniProt P03372).
T1 construct: host or cells: T47D and MCF7 human breast cancer cells
T1 sequence (P03372 1-595): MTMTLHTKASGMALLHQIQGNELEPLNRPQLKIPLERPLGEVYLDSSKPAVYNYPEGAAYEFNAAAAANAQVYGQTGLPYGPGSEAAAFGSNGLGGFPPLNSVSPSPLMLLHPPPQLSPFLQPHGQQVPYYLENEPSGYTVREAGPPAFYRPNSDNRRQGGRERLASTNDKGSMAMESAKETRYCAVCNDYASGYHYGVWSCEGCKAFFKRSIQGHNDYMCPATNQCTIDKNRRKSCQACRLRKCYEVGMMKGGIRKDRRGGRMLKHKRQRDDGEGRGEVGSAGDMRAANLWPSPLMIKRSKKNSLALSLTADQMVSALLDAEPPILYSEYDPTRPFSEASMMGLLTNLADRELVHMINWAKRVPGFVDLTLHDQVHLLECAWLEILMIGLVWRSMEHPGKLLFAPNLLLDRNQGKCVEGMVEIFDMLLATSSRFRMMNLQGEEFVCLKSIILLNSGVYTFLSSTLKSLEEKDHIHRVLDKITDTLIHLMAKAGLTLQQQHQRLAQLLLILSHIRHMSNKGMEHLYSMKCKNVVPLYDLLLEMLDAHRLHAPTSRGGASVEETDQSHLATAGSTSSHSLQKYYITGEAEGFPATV
Description: ER degradation activity, in-cell western blot analysis in T47D cells. It is filed as cell-based. The following applies: 16 hours, Table A does not say which cell line (T47D or MCF7), read-out: Potency (DC50). The method, boiled down:
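In-cell western, T47D; compounds 16 h, 0.5% DMSO final; anti-rabbit-680/anti-mouse-800 secondaries, 1 h RT, dark; read on CLX imager. ER % vs untreated/DMSO wells (100%).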
The DC50 is the concentration at which degradation of the target reaches its halfway point. For the molecule `O=C1CCC(N2C(=O)c3cc4c(cc3C2=O)CN(CC(=O)N2CCC3(CC2)CCN(c2ccc([C@@H]5c6ccc(O)cc6CCC56CCCC6)cc2)CC3)C4)C(=O)N1` (mixture of isomers) [E 179, Rac-2-(2,6-dioxopiperidin-3-yl)-6-(2-(9-(4-((R)-6′-hydroxy-3′,4′-dihydro-1′H-spiro[cyclopentane-1,2′-naphthalen]-1′-yl)phenyl)-3,9-diazaspiro[5.5]undecan-3-yl)-2-oxoethyl)-6,7-dihydropyrrolo[3,4-f]isoindole-1,3(2H,5H)-dione], the DC50 lay in the range of 10 to 100 nM.
On the same count and under the same terms, for `O=C1CCC(N2C(=O)c3cc4c(cc3C2=O)CN(Cc2ccc(N3CC(Nc5ccc([C@@H]6c7ccc(O)cc7CC[C@@H]6c6ccccc6)cc5)C3)nc2)C4)C(=O)N1` (stereo partly drawn) [E 373, 2-(2,6-dioxopiperidin-3-yl)-6-((6-(3-((4-((1R,2S)-6-hydroxy-2-phenyl-1,2,3,4-tetrahydronaphthalen-1-yl)phenyl)amino)azetidin-1-yl)pyridin-3-yl)methyl)-6,7-dihydropyrrolo[3,4-f]isoindole-1,3(2H,5H)-dione] the value was > 100 nM.
The same measure, in the same setting: for `C[C@@H]1Cc2c([nH]c3ccccc23)[C@@H](c2cnc(C3=CCC(C(=O)N4CCC(N5Cc6cc7c(cc6C5)C(=O)N(C5CCC(=O)NC5=O)C7=O)CC4)CC3)nc2)N1CC(F)F` (stereo partly drawn) [E 315, 6-(1-(4-(5-((1R,3R)-2-(2,2-difluoroethyl)-3-methyl-2,3,4,9-tetrahydro-1H-pyrido[3,4-b]indol-1-yl)pyrimidin-2-yl)cyclohex-3-ene-1-carbonyl)piperidin-4-yl)-2-(2,6-dioxopiperidin-3-yl)-6,7-dihydropyrrolo[3,4-f]isoindole-1,3(2H,5H)-dione] the value was > 100 nM; for `O=C1CCC(N2C(=O)c3cc4c(cc3C2=O)CN(C(=O)c2ccc(CC(=O)N3CCCC(Oc5ccc([C@@H]6c7ccc(O)cc7CC[C@@H]6c6ccccc6)cc5)C3)cc2)C4)C(=O)N1` (mixture of isomers) [E 24, Rac-2-(2,6-dioxopiperidin-3-yl)-6-(4-(2-(3-(4-((1R,2S)-6-hydroxy-2-phenyl-1,2,3,4-tetrahydronaphthalen-1-yl)phenoxy)piperidin-1-yl)-2-oxoethyl)benzoyl)-6,7-dihydropyrrolo[3,4-f]isoindole-1,3(2H,5H)-dione], 10 to 100 nM.
As for `C[C@@H]1Cc2c([nH]c3ccccc23)[C@H](c2c(F)cc(C(=O)N3CCC4(CCC(CN5Cc6cc7c(cc6C5)C(=O)N(C5CCC(=O)NC5=O)C7=O)CC4)CC3)cc2F)N1CC(F)F` (stereo partly drawn) [E 379, 6-((3-(4-((1S,3R)-2-(2,2-difluoroethyl)-3-methyl-2,3,4,9-tetrahydro-1H-pyrido[3,4-b]indol-1-yl)-3,5-difluorobenzoyl)-3-azaspiro[5.5]undecan-9-yl)methyl)-2-(2,6-dioxopiperidin-3-yl)-6,7-dihydropyrrolo[3,4-f]isoindole-1,3(2H,5H)-dione], the DC50 is > 100 nM.
As for `C[C@@H]1Cc2cc(O)ccc2[C@@H](c2ccc(N3CCC(C(=O)N4CC(CN5Cc6cc7c(cc6C5)C(=O)N(C5CCC(=O)NC5=O)C7=O)C4)CC3)cc2)N1CC(F)F` (stereo partly drawn) [E 350, 6-((1-(1-(4-((1R,3R)-2-(2,2-difluoroethyl)-6-hydroxy-3-methyl-1,2,3,4-tetrahydroisoquinolin-1-yl)phenyl)piperidine-4-carbonyl)azetidin-3-yl)methyl)-2-(2,6-dioxopiperidin-3-yl)-6,7-dihydropyrrolo[3,4-f]isoindole-1,3(2H,5H)-dione], the DC50 is > 100 nM.
For `C[C@@H]1Cc2c([nH]c3ccccc23)[C@@H](c2c(F)cc(N3CCC(N4CC(C(=O)N5Cc6cc7c(cc6C5)C(=O)N(C5CCC(=O)NC5=O)C7)C4)CC3)cc2F)N1CC(F)F` (stereo partly drawn) [E 120, 3-(6-(1-(1-(4-((1R,3R)-2-(2,2-difluoroethyl)-3-methyl-2,3,4,9-tetrahydro-1H-pyrido[3,4-b]indol-1-yl)-3,5-difluorophenyl)piperidin-4-yl)azetidine-3-carbonyl)-1-oxo-3,5,6,7-tetrahydropyrrolo[3,4-f]isoindol-2(1H)-yl)piperidine-2,6-dione], the DC50 lay in the range of 10 to 100 nM.
Regarding `O=C1CCC(N2C(=O)c3cc4c(cc3C2=O)CCN(CC(=O)N2CCC3(CC2)CCN(c2ccc([C@@H]5c6ccc(O)cc6CC[C@@H]5c5ccccc5)cc2)CC3)CC4)C(=O)N1` (stereo partly drawn) [E 166, 2-(2,6-dioxopiperidin-3-yl)-7-(2-(9-(4-((1R,2S)-6-hydroxy-2-phenyl-1,2,3,4-tetrahydronaphthalen-1-yl)phenyl)-3,9-diazaspiro[5.5]undecan-3-yl)-2-oxoethyl)-6,7,8,9-tetrahydroazepino[4,5-f]isoindole-1,3(2H,5H)-dione], the DC50 was > 100 nM.
For the molecule `C[C@@H]1CC2(CCN(c3ccc([C@@H]4c5ccc(O)cc5CC[C@@H]4c4ccc(F)cc4)cc3)CC2)CN1CC(=O)N1Cc2cc3c(cc2C1)C(=O)N(C1CCC(=O)NC1=O)C3=O` (mixture of isomers) [E 146, Rac-2-(2,6-dioxopiperidin-3-yl)-6-(2-((R)-8-(4-((1R,2S)-2-(4-fluorophenyl)-6-hydroxy-1,2,3,4-tetrahydronaphthalen-1-yl)phenyl)-3-methyl-2,8-diazaspiro[4.5]decan-2-yl)acetyl)-6,7-dihydropyrrolo[3,4-f]isoindole-1,3(2H,5H)-dione], the DC50 was > 100 nM.
Turning to `O=C1CCC(N2C(=O)c3cc4c(cc3C2=O)CN(C2CCC(C(=O)N3CC(Oc5ccc([C@H]6c7ccc(O)cc7CC[C@H]6c6ccccc6)cc5)C3)CC2)C4)C(=O)N1` (stereo partly drawn) [E 384, 2-(2,6-dioxopiperidin-3-yl)-6-((1R,4s)-4-(3-(4-((1S,2R)-6-hydroxy-2-phenyl-1,2,3,4-tetrahydronaphthalen-1-yl)phenoxy)azetidine-1-carbonyl)cyclohexyl)-6,7-dihydropyrrolo[3,4-f]isoindole-1,3(2H,5H)-dione], the DC50 lay in the range of 10 to 100 nM.
Still for that read-out and setting: for `C[C@@H]1Cc2c([nH]c3ccccc23)[C@@H](c2c(F)cc(-c3ccc(CN4CCC(N5Cc6cc7c(cc6C5)C(=O)N(C5CCC(=O)NC5=O)C7=O)CC4)nc3)cc2F)N1CC(F)F` (stereo partly drawn) [E326, 6-(1-((5-(4-((1R,3R)-2-(2,2-difluoroethyl)-3-methyl-2,3,4,9-tetrahydro-1H-pyrido[3,4-b]indol-1-yl)-3,5-difluorophenyl)pyridin-2-yl)methyl)piperidin-4-yl)-2-(2,6-dioxopiperidin-3-yl)-6,7-dihydropyrrolo[3,4-f]isoindole-1,3(2H,5H)-dione] the value was > 100 nM.
On the same count and under the same terms, for `C[C@@H]1Cc2c([nH]c3ccccc23)[C@@H](c2cnc(N3CCC(CN4CCC(N5Cc6cc7c(cc6C5)C(=O)N(C5CCC(=O)NC5=O)C7=O)CC4)CC3)nc2)N1CC(F)F` (stereo partly drawn) [E 261, 6-(1-((1-(5-((1R,3R)-2-(2,2-difluoroethyl)-3-methyl-2,3,4,9-tetrahydro-1H-pyrido[3,4-b]indol-1-yl)pyrimidin-2-yl)piperidin-4-yl)methyl)piperidin-4-yl)-2-(2,6-dioxopiperidin-3-yl)-6,7-dihydropyrrolo[3,4-f]isoindole-1,3(2H,5H)-dione] the value was 10 to 100 nM.

The assay is the same for the next values; noted with them: compounds 16 hours, Table A does not say whether T47D or MCF7, read-out: Potency (DC50).
On to `O=C1CCC(N2C(=O)c3cc4c(cc3C2=O)CN(CC(=O)N2CCC3(CC2)CCN(c2ccc([C@@H]5c6ccc(O)cc6OC[C@@H]5c5ccccc5)cc2)CC3)C4)C(=O)N1` (mixture of isomers) [E 467, 2-(2,6-dioxopiperidin-3-yl)-6-(2-(9-(4-(7-hydroxy-3-phenylchroman-4-yl)phenyl)-3,9-diazaspiro[5.5]undecan-3-yl)-2-oxoethyl)-6,7-dihydropyrrolo[3,4-f]isoindole-1, 3(2H,5H)-dione], for which the half-maximal degradation concentration (DC50) is > 100 nM.
The same measure, in the same setting: then `CC1(C(=O)N2CCC(N3Cc4cc5c(cc4C3)C(=O)N(C3CCC(=O)NC3=O)C5=O)CC2)CCN(c2ccc([C@@H]3c4ccc(O)cc4CC[C@@H]3c3ccccc3)cc2)CC1` (mixture of isomers) [E 488, rac-2-(2,6-dioxopiperidin-3-yl)-6-(1-(1-(4-((1R,2S)-6-hydroxy-2-phenyl-1,2,3,4-tetrahydronaphthalen-1-yl)phenyl)-4-methylpiperidine-4-carbonyl)piperidin-4-yl)-6,7-dihydropyrrolo[3,4-f]isoindole-1,3(2H,5H)-dione], with > 100 nM.
As to `C[C@@H]1Cc2cc(O)ccc2[C@@H](c2c(F)cc(C3CCC4(CC3)CCN(C(=O)CN3Cc5cc6c(cc5C3)C(=O)N(C3CCC(=O)NC3=O)C6=O)CC4)cc2F)N1CC(F)F` (stereo partly drawn) [E 447, 6-(2-(9-(4-((1S,3R)-2-(2,2-difluoroethyl)-6-hydroxy-3-methyl-1,2,3,4-tetrahydroisoquinolin-1-yl)-3,5-difluorophenyl)-3-azaspiro[5.5]undecan-3-yl)-2-oxoethyl)-2-(2,6-dioxopiperidin-3-yl)-6,7-dihydropyrrolo[3,4-f]isoindole-1,3(2H,5H)-dione], the DC50 was > 100 nM.
The same measure, in the same setting: then `C[C@@H]1Cc2c([nH]c3ccccc23)[C@@H](c2cnc(N3CC4(CCC(CN5Cc6cc7c(cc6C5)C(=O)N(C5CCC(=O)NC5=O)C7=O)CC4)C3)nc2)N1CC(F)F` (stereo partly drawn) [E 472, 6-((2-(5-((1R,3R)-2-(2,2-difluoroethyl)-3-methyl-2,3,4,9-tetrahydro-1H-pyrido[3,4-b]indol-1-yl)pyrimidin-2-yl)-2-azaspiro[3.5]nonan-7-yl)methyl)-2-(2,6-dioxopiperidin-3-yl)-6,7-dihydropyrrolo[3,4-f]isoindole-1,3(2H,5H)-dione], with 10 to 100 nM.
